Legend:
Format in all cases: cell-based
human whole blood [1] = experiment: Hematology analysis (cell counts) in IBMIR blood loop system; details: WI-38 cells 1 × 10^5/2 ml, 1 hour, IBsolvMIR 0.2 mg/ml, heparin 0, 0.2 or 0.5 U/ml
Protocol: (§1) Materials and Methods Dextran sulfate (IBsolvMIR®, Tikomed AB, Viken, Sweden, WO 2016/076780), heparin (Heparin LEO®, LEO Pharma, cat. No. 585679) and WI-38 cells (American Type Culture Collection (ATCC)) were administered to blood loops as shown in Table 1. Vehicle was an aqueous 0.9% NaCl solution. Each loop contained in total 2 ml of freshly taken human whole blood from three blood donors. Reagents were added to the loops according to Table 1 and the loops were set to rotate at 37° C. Blood samples were taken at the zero, 15 min, 1 hour and 4 hour time points.
Blood samples were extracted from loops at the zero and 1 hour time points and platelets, red blood cells and white blood cells were automatically counted using a Sysmex XN-L 350 Hematology Analyzer.

human whole blood [2] = experiment: Coagulation (blood clot size) and hemolysis in IBMIR blood loop system
Protocol: as §1
Clot scale: 1=Small clot observed (<2 mm), 2=Medium-sized clot observed (2-5 mm), 3=Large clot observed (>5 mm), * Clot removed from loop (not noted at 4 h when all blood was removed from loop), n.s.=no sample. Hemolysis: +=hemolysis observed in blood loop.

human whole blood [3] = experiment: Cytokine analysis by electrochemiluminescence in blood loop system
Protocol: as §1
Blood was extracted from loops at the zero and 4 hour time points and cytokines were analyzed by electrochemiluminescence (ECL) in multiplex mode using MESO QuickPlex SQ 120 (Mesoscale Discovery).

human whole blood [4] = experiment: Flow cytometry analysis of blood from blood loops; details: 1 hour
Protocol: as §1
Fresh blood was collected and immediately mixed with ethylenediaminetetraacetic acid (EDTA) (zero time point samples) or added to loops followed by sampling and mixing with EDTA at the 1 hour time point. Data was analyzed using flow cytometry.

human whole blood [5] = experiment: Complement split products C3a and C5a by ELISA in blood loop system
Protocol: as §1
Complement analysis Complement split product C3a and C5a concentrations were measured by ELISA according to the manufacturer's instructions (RayBio® Human C3a and C5a ELISA Kit for serum, plasma, and cell culture supernatants by RayBiotech) at the zero, 15 min and 1 hour time points.

[6] = WI-38-treated loops, three donors
[7] = agent alone, WI-38 cells, listed as Dextran sulfate
[8] = vs corresponding WI-38 treated without IBsolvMIR
[9] = vehicle at 0.5 U/ml heparin, donors D2 and D3, 4 hour
[10] = heparin 0.2 or 0.5 U/ml combined with IBsolvMIR 0.2 mg/ml, WI-38 cells

## Dextran sulfate [IBsolvMIR®]
Human whole blood [1]
  WBC counts (WI-38 induced decrease): completely rescued the WBC decrease
Human whole blood [1]; listed as dextran sulfate
  WBC counts (WI-38 induced decrease): capable of restoring WBC counts
Human whole blood [2]; IBsolvMIR alone loops, all donors, 15 min to 4 hours
  Clotting, loops without WI-38 cells: No clotting was observed
Human whole blood [2]; [6]
  Clotting at 15 minutes: no clotting was observed
  Clotting at one hour: medium-sized clots were observed in two WI-38+IBsolvMIR® loops
Human whole blood [3]; 4 hour time point
  IL-6 cytokine release: ambiguous
Human whole blood [3]; IBsolvMIR alone groups vs corresponding vehicle, 4 hour
  MCP-1 levels: higher than corresponding vehicle
Human whole blood [3]; WI-38 cells with IBsolvMIR vs corresponding WI-38 alone group, 4 hour
  MCP-1 levels: slightly increased levels of MCP-1
Human whole blood [3]; vehicle and WI-38 cell-induced, 4 hour
  IL-8 release: clear IBsolvMIR® dependent reduction
Human whole blood [4]; WI-38 cells
  Activation of granulocytes (CD66b+): overall decreased activation profile
  Activation of monocytes (CD14+): overall decreased activation profile
  Aggregation of platelets (decrease in proportion of single platelets): entirely revoked
  B cell count (WI-38 dependent decrease): entirely reversed up to vehicle level
  Frequency of granulocytes: increased frequency
  Frequency of monocytes: increased frequency
Human whole blood [4]; WI-38 treated groups with vs without IBsolvMIR
  TF positive cell counts: about ten-fold
Human whole blood [4]; agent alone, WI-38 cells
  C5b-9 formation on platelets (proportion of C5b-9 positive platelets): partly reverted
  Platelet binding to WI-38 cells (cell transplant): partly reverted
  Proportion of platelets bound to granulocytes: capable of reducing
  Proportion of platelets bound to monocytes: capable of reducing
Human whole blood [4]; [7]
  C5b-9 formation on platelets (proportion of C5b-9 positive platelets): capable of reducing
  Platelet binding to WI-38 cells (cell transplant): capable of reducing
Human whole blood [4]; vs WI-38 alone
  Complement activation (C5b-9) on TF positive cells: lower
Human whole blood [4]; [8]
  Frequency of apoptotic (annexin +) TF+ cells: lower
  Frequency of dead (annexin + and/or viability dye +) TF+ cells: lower
Human whole blood [5]; 15 min time point
  C3a increase in WI-38 treated groups: entirely blocked
Human whole blood [5]; 1 hour time point
  C5a vs corresponding treatment without IBsolvMIR: lower in almost every donor in every group
Human whole blood [5]; no heparin, 0.2 and 0.5 U/ml heparin, with and without WI-38 cells, 15 min and 1 hour
  C3a vs corresponding treatment without IBsolvMIR: decreased C3a

## heparin [reference compound]
Human whole blood [1]
  WBC counts (WI-38 induced decrease): does not affect WBC counts
Human whole blood [3]; [9]
  IL-6 response: > 100 fold
  TNF-α release: dramatic elevated vehicle response
Human whole blood [4]; agent alone, WI-38 cells
  C5b-9 formation on platelets (proportion of C5b-9 positive platelets): did not have any effects
  Platelet binding to WI-38 cells (cell transplant): did not have any effect at all
  Proportion of platelets bound to granulocytes: did not have any effect at all
  Proportion of platelets bound to monocytes: did not have any effect at all
Human whole blood [4]; [10]
  C5b-9 formation on platelets (proportion of C5b-9 positive platelets): clear concentration-dependent effect
  Platelet binding to WI-38 cells (cell transplant): potentiated the effects of IBsolvMIR®
Human whole blood [4]; heparin 0.2 or 0.5 U/ml combined with IBsolvMIR 0.2 mg/ml, WI-38 cells, listed as Heparin
  C5b-9 formation on platelets (proportion of C5b-9 positive platelets): potentiated the effects of IBsolvMIR®
